Measurements from ChEMBL document CHEMBL1201862, “PubChem BioAssay data set” (2004).
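Exposure lasted 48 hours, with cells grown in 96-well plates and compounds tested at five concentrations. GI50 = concentration required for 50% inhibition of growth.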 Activity calls are given as the source filed them. Cut-off read from the data, not from the text of the source: active = GI50 up to about 1.1 µM and inactive = higher.

Legend:
Assay in all cases: NCI tumour cell line growth inhibition, 48 h
SF-295 = tested on: SF-295
NCI-H23 = tested on: NCI-H23
TK-10 = tested on: TK-10
U-251 = tested on: U-251
OVCAR-3 = tested on: OVCAR-3
SNB-19 = tested on: SNB-19
Hs-578T = tested on: Hs-578T
HOP-92 = tested on: HOP-92
MDA-MB-231 = tested on: MDA-MB-231
A549 = tested on: A549
CCRF-CEM = tested on: CCRF-CEM
OVCAR-4 = tested on: OVCAR-4
SK-MEL-28 = tested on: SK-MEL-28
NCI-H226 = tested on: NCI-H226
Malme-3M = tested on: Malme-3M
SW-620 = tested on: SW-620
IGROV-1 = tested on: IGROV-1
DU-145 = tested on: DU-145
SK-MEL-2 = tested on: SK-MEL-2
NCI-H460 = tested on: NCI-H460

Measured: GI50

O=S(=O)(/N=c1/[nH]c2ccccc2n1S(=O)(=O)c1ccccc1)c1ccccc1
inactive: SF-295 41.1 µM | NCI-H23 41.6 µM | TK-10 47.5 µM | U-251 22.1 µM | OVCAR-3 27.9 µM | SNB-19 32.7 µM | Hs-578T 88.1 µM | HOP-92 38.5 µM | MDA-MB-231 > 100 µM | A549 42.4 µM | CCRF-CEM 31.3 µM | OVCAR-4 46.6 µM | SK-MEL-28 34.4 µM | NCI-H226 56.2 µM | Malme-3M 37.2 µM | SW-620 30.4 µM | IGROV-1 48 µM | DU-145 57.7 µM | SK-MEL-2 35.4 µM

CCN(CC)CCOCC1CCCN2CCCCC12 (configuration not stated)
inactive: SF-295 > 100 µM | NCI-H23 > 100 µM | TK-10 > 100 µM | U-251 > 100 µM | OVCAR-3 > 100 µM | SNB-19 > 100 µM | Hs-578T > 100 µM | HOP-92 > 100 µM | MDA-MB-231 > 100 µM | NCI-H460 > 100 µM | A549 > 100 µM | CCRF-CEM > 100 µM | OVCAR-4 > 100 µM | SK-MEL-28 > 100 µM | NCI-H226 > 100 µM | Malme-3M > 100 µM | SW-620 > 100 µM | DU-145 > 100 µM | SK-MEL-2 > 100 µM

COc1ccccc1C(=O)OCC1CCCN2CCCCC12 (configuration not stated)
inactive: SF-295 26.3 µM | NCI-H23 > 100 µM | TK-10 > 100 µM | U-251 26 µM | SNB-19 35.9 µM | Hs-578T 59.7 µM | HOP-92 > 100 µM | MDA-MB-231 24.8 µM | NCI-H460 21.6 µM | A549 25.8 µM | CCRF-CEM 18.6 µM | OVCAR-4 83 µM | SK-MEL-28 26.4 µM | NCI-H226 54.8 µM | Malme-3M 33.6 µM | SW-620 > 100 µM | DU-145 > 100 µM | SK-MEL-2 54.3 µM

CC1=[N+]([O-])C2(CCCC2)N(O)C1(C)C
inactive: SF-295 > 100 µM | NCI-H23 > 100 µM | TK-10 > 100 µM | U-251 > 100 µM | OVCAR-3 > 100 µM | SNB-19 > 100 µM | Hs-578T > 100 µM | HOP-92 > 100 µM | MDA-MB-231 > 100 µM | NCI-H460 > 100 µM | A549 > 100 µM | OVCAR-4 > 100 µM | SK-MEL-28 > 100 µM | NCI-H226 > 100 µM | Malme-3M > 100 µM | SW-620 > 100 µM | IGROV-1 > 100 µM | DU-145 > 100 µM | SK-MEL-2 > 100 µM

COC(=O)c1cnn2c1ccc1ccccc12
inactive: SF-295 > 100 µM | NCI-H23 > 100 µM | TK-10 > 100 µM | U-251 > 100 µM | OVCAR-3 > 100 µM | SNB-19 > 100 µM | Hs-578T > 100 µM | HOP-92 > 100 µM | MDA-MB-231 > 100 µM | NCI-H460 > 100 µM | A549 > 100 µM | CCRF-CEM > 100 µM | SK-MEL-28 > 100 µM | NCI-H226 > 100 µM | Malme-3M > 100 µM | SW-620 > 100 µM | IGROV-1 78.9 µM | DU-145 > 100 µM | SK-MEL-2 > 100 µM

Cc1cn([C@@H]2C[C@@H]2CO)c(=O)[nH]c1=O
inactive: NCI-H23 > 100 µM | TK-10 > 100 µM | U-251 > 100 µM | SNB-19 > 100 µM | Hs-578T > 100 µM | HOP-92 > 100 µM | MDA-MB-231 > 100 µM | NCI-H460 > 100 µM | A549 > 100 µM | CCRF-CEM > 100 µM | OVCAR-4 > 100 µM | SK-MEL-28 > 100 µM | NCI-H226 > 100 µM | Malme-3M > 100 µM | SW-620 > 100 µM | IGROV-1 > 100 µM | DU-145 > 100 µM | SK-MEL-2 > 100 µM
